Several values for one entry are separate records, joined by “and”; a condition that tells them apart may be missing. Equal values may be shown once.
How the values were obtained:
[1] = test system: German cockroaches (Blatella Germanica); experiment: Cockroach repellency screening on partially treated formica surface (Example 2); format: in vivo; conditions: 20 mg/m^2 on formica; for Percentage Dead / Percentage Present, Treated Section / Percentage Present, Untreated Section / Percentage Present, Treated Section, Average / Percentage Present, Untreated Section, Average: cockroaches; for Percentage Present, Treated Section, Average / Percentage Present, Untreated Section, Average: average of days 1, 2 and 3; for Number of Cockroaches present, Treated Section / Number of Cockroaches present, Untreated Section / Number of Cockroaches, Dead: single replicates (n = 20); for Number of Cockroaches present, Treated Section, Total / Number of Cockroaches present, Untreated Section, Total / Number of Cockroaches, Dead, Total: total of 4 replicates (80)
Description: The effectiveness of compounds of formula I as an insect repellent was determined using German cockroaches exposed to a formica surface partially treated/partially untreated with a test compound of formula I. The study was conducted in an air conditioned laboratory at a temperature of 22°±2° C. under a normal day/night cycle, using German cockroaches (Blatella Germanica) of mixed sex and age. The study was conducted over a 3 day period and the repellent effectiveness assessed 1, 2 and 3 days after cockroach introduction. A rectangle of formica 40 cm×30 cm was treated at 20 mg/m^2 with a test compound of formula I. This was achieved by soaking a paper wipe (Rag on a Roll ca 20 cm×20 cm) in a solution of the test compound in ethanol, squeezing out the excess liquid and wiping over the surface to give the required coverage. This was checked by weighing the cloth after application. The surface was allowed to dry. A similar rectangle was wiped with ethanol alone (untreated surface). The treated formica rectangle was placed on the bench and a plastic container was placed on the rectangle. This had been treated with fluon to prevent cockroach escape. Two sheets of formica (10 cm×10 cm) were placed on the formica, one on the treated surface and one on the untreated surface. This acted as a cockroach harbourage. The formica sheet to be used in the treated section was treated at the same rate as the treated formica. The formica was placed on two 1 cm high bottle tops to allow cockroaches access under the formica. 20 German cockroaches were added (5 adults and 15 nymphs) to the centre of the formica. No food and water was supplied for these cockroaches. At 1, 2 and 3 days after cockroach introduction the number of cockroaches under each harbourage was counted. After each count the harbourage position was change to avoid the possibility of […] were replaced and new cockroaches were added to replace any dead cockroaches. The above was repeated 3 times to provide a total of 4 replicates.

[2] = test system: Black Ants (Ochetellus sp); experiment: Ant repellency on half-treated formica (Example 4); format: in vivo; conditions: ants, 20 mg/m^2 on formica
Description: The effectiveness of compound 2 (example 1) as an insect repellent was determined using ants exposed to a formica surface partially treated/partially untreated with compound 2, and was directly compared to the repellency of the well known insect repellents Farnesol and Dihydrofarnesal.
The study was conducted in an air conditioned laboratory at a temperature of 22°±2° C. under a normal day/night cycle, using Black Ants (Ochetellus sp) of mixed sex and age. The study ws conducted over a 3 day period and the repellent effectiveness assessed 1, 2 and 3 days after ant introduction.
One half of a rectangle of formica 40 cm×30 cm was treated at 20 mg/m^2 with the test compounds. This was achieved by soaking a paper wipe (Rag On A Roll approximately 20 cm×20 cm) in a solution of the test compound in ethanol, squeezing out the excess liquid and wiping over the surface to give the required coverage. This was checked by weighing the cloth after application. The surface was allowed to dry. The other half was wiped with ethanol alone (untreated surface).
The treated formica rectangle was placed on the bench and a glass ring (diameter 20 cm) was placed on the rectangle. This had been treated with fluon to prevent ant escape.
A small plastic container 2 cm in diameter was placed on the formica, one on the treated surface and one on the untreated surface. The plastic container placed on the treated surface had repellent applied in the same way as the treated formica. The plastic container on the untreated surface was wiped with ethanol.
24 hours after treatment (1 day) 20 ants were added to the centre of the formica. No food and water was supplied for these ants. 2 hours after this the number of ants on the treated and untreated surfaces was counted.
The above was repeated 3 times to provide a total of 4 replicates.
The above was repeated at 2 days and 3 days. New ants were used at each time period.

[3] = 1 day after cockroach introduction
[4] = 2 days after cockroach introduction
[5] = 3 days after cockroach introduction

Compound | Percentage Dead ([1]; 1 day after treatment) | Percentage Present, Treated Section ([1]; 1 day after treatment) | Percentage Present, Untreated Section ([1]; 1 day after treatment) | Percentage Dead ([1]; 2 days after treatment) | Percentage Present, Treated Section ([1]; 2 days after treatment) | Percentage Present, Untreated Section ([1]; 2 days after treatment) | Percentage Dead ([1]; 3 days after treatment) | Percentage Present, Treated Section ([1]; 3 days after treatment) | Percentage Present, Untreated Section ([1]; 3 days after treatment) | Percentage Present, Treated Section, Average [1] | Percentage Present, Untreated Section, Average [1] | also measured
CC1CCC(C(C)C)C(C(=O)N(C)C)C1 (centres unmarked) [Compound 5, N,N-dimethyl-p-menthane-3-carboxamide] | 0% | 15.0% | 85.0% | 1.2% | 10.0% | 88.8% | 1.2% | 15.0% | 83.8% | 13.3% | 85.9% | –
CCCNC(=O)C1CC(C)CCC1C(C)C (centres unmarked) [Compound 3, N-propyl-p-menthane-3-carboxamide] | 0% | 16.3% | 83.7% | 1.2% | 6.3% | 92.5% | 0% | 6.3% | 93.7% | 9.6% | 90.0% | –
CCN(CC)C(=O)C1CC(C)CCC1C(C)C (centres unmarked) [Compound 6, N,N-diethyl-p-menthane-3-carboxamide] | 0% | 11.3% | 88.7% | 0% | 13.8% | 86.2% | 2.5% | 6.3% | 91.2% | 10.5% | 88.7% | –
CC1CCC(C(C)C)C(C(=O)Nc2ccccc2)C1 (centres unmarked) [Compound 4, N-phenyl-p-menthane-3-carboxamide] | 0% | 46.3% | 53.7% | 0% | 35.0% | 65.0% | 1.2% | 12.5% | 86.3% | 31.3% | 68.3% | –
CC(C)=CCC/C(C)=C/CCC(C)CC=O (centres unmarked) [Dihydrofarnesal, reference compound] | – | – | – | – | – | – | – | – | – | – | – | Percentage Dead ([2]; 1 day after treatment): 0%; Percentage Present, Treated Section ([2]; 1 day after treatment): 20.0%; Percentage Present, Untreated Section ([2]; 1 day after treatment): 80.0%; Percentage Dead ([2]; 2 days after treatment): 0%; Percentage Present, Treated Section ([2]; 2 days after treatment): 21.2%; Percentage Present, Untreated Section ([2]; 2 days after treatment): 78.8%; Percentage Dead ([2]; 3 days after treatment): 0%; Percentage Present, Treated Section ([2]; 3 days after treatment): 12.5%; Percentage Present, Untreated Section ([2]; 3 days after treatment): 87.5%; Percentage Dead, Average ([2]; average of days 1, 2 and 3): 0%; Percentage Present, Treated Section, Average ([2]; average of days 1, 2 and 3): 17.9%; Percentage Present, Untreated Section, Average ([2]; average of days 1, 2 and 3): 82.1%; Percentage Present, Treated Section, Average ([2]; average of days 1, 2 and 3, listed as Dihydrofarnesol): approximately 17%
CNC(=O)C1CC(C)CCC1C(C)C (centres unmarked) [Compound 1, N-methyl-p-menthane-3-carboxamide] | 0% | 18.7% | 81.3% | 1.2% | 16.3% | 82.5% | 1.2% | 13.8% | 85.0% | 16.3% | 82.9% | Number of Cockroaches present, Treated Section [1, 3]: 5 and 3 and 7 and 0; Number of Cockroaches present, Untreated Section [1, 3]: 15 and 17 and 13 and 20; Number of Cockroaches, Dead [1, 3]: 0; Number of Cockroaches present, Treated Section, Total [1, 3]: 15; Number of Cockroaches present, Untreated Section, Total [1, 3]: 65; Number of Cockroaches, Dead, Total [1, 3]: 0; Number of Cockroaches present, Treated Section [1, 4]: 5 (2×) and 3 and 0; Number of Cockroaches present, Untreated Section [1, 4]: 15 and 17 and 14 and 20; Number of Cockroaches, Dead [1, 4]: 0 (3×) and 1; Number of Cockroaches present, Treated Section, Total [1, 4]: 13; Number of Cockroaches present, Untreated Section, Total [1, 4]: 66; Number of Cockroaches, Dead, Total [1, 4]: 1; Number of Cockroaches present, Treated Section [1, 5]: 4 (2×) and 3 and 0; Number of Cockroaches present, Untreated Section [1, 5]: 16 (3×) and 20; Number of Cockroaches, Dead [1, 5]: 0 (3×) and 1; Number of Cockroaches present, Treated Section, Total [1, 5]: 11; Number of Cockroaches present, Untreated Section, Total [1, 5]: 68; Number of Cockroaches, Dead, Total [1, 5]: 1

— patent US20040028714A1, “Composition having insect repellent characteristics” (priority 2000, published 2004)
